Test results taken from patent US7563467B2, “Use of an Opuntia ficus-indica extract and compounds isolated therefrom for protecting nerve cells” (Korea Institute of Science and Technology, priority 2001, dated 2009).
In brackets after ≈: the same amount, converted by molar mass. Entries after “also recorded” stand apart in the source; their conditions may differ. Marks after values point to notes of the source that are not given here.

What was measured:
[1] = Superoxide anion radical scavenging activity (xanthine/xanthine oxidase, NBT); conditions: for Superoxide anion radical scavenging activity (IC50): isolated compounds
[2] = DPPH radical scavenging activity (electron donating ability); conditions: for DPPH radical scavenging activity (IC50): isolated compounds
[3] = tested on: primary cultured rat cerebrocortical neurons; assay: Inhibition of xanthine/xanthine oxidase-induced neurotoxicity (LDH release); type: cell-based, Sprague-Dawley rat; conditions: for IC50: Cerebrocortical neuron, isolated compounds, rat cerebrocortical neurons, LDH
Method: (§1) Namely, the cerebral cortices of Sprague-Dawley rat embryos at 16-18 days of gestation were isolated, and meninges […] removed therefrom using a dissecting microscope. The tissue thus obtained was separated into single cells by trituration using a Pasteur pipette in a medium (MEM, Gibco BRL) containing 25 mM glucose, 5% FBS, 5% horse serum and 2 mM L-glutamine. […] A portion of the culture solution was replaced with a fresh culture media twice per week, and cultures were treated with 10 μM cytosine arabinoside for 24 to 72 hours at day 7 to 9 after planting to inhibit the growth of non-neuronal cells. The cultured cells at day 10 to 14 after planting were used in experiments. […] Data were calculated as percentages of the control LDH activity in the culture medium exposed to the respective oxidative insult in the absence of test principles. The inhibitory activity of a test sample for the oxidative nerve cell damage was calculated from the amount of released LDH relative to that of an unchanged control.

[4] = tested on: primary cultured rat cerebrocortical neurons; assay: Inhibition of hydrogen peroxide-induced neurotoxicity (LDH release); type: cell-based, Sprague-Dawley rat; conditions: for IC50: Cerebrocortical neuron
Method: as §1

[5] = tested on: rat model of transient focal cerebral ischemic damage; assay: Neurological score after middle cerebral artery occlusion; conditions: for Neurological score: 10 point means normal, average ± standard error
[6] = tested on: rat model of transient focal cerebral ischemic damage; assay: Transient focal cerebral ischemia (middle cerebral artery occlusion and reperfusion), TTC infarction volume and swelling; type: in vivo, Sprague-Dawley rat; conditions: one day after occlusion; for Corrected total infarction volume: corrected for swelling; for Corrected total infarction volume / Swelling ratio: rat MCAO, 10 mg/kg intraperitoneally; for Infarction volume, cerebral cortex / Infarction volume, corpus striatum / Infarction volume, total: rat MCAO 120 min and reperfusion, 10 mg/kg intraperitoneally about 30 min after ischemia
[7] = tested on: cultured rat cerebral hippocampus cells and cortex cells; assay: Inhibition of NMDA-induced neurotoxicity (LDH release); type: cell-based, SD rat; conditions: for inhibition at 9 µg/mL / inhibition at 30 µg/mL: Rattus norvegicus, 100 μM NMDA; for inhibition at 9 µg/mL: 9 μg/Ml; for inhibition at 30 µg/mL: 30 μg/Ml
Method: The hippocampus and cortex were extracted from the cerebral tissue of 17-day old fetus of a pregnant SD rat using a microscope. The extracted hippocampus and cortex were each separated into discrete single cells using a pipette, and the cells obtained therefrom by centrifuging were inoculated into a 96-well plate coated with poly-L-lysine. […] After 72 hours incubation, the medium was replaced with the same medium but lacking glutamate, and the cells were further incubated. […] The cultured cells prepared in Reference Example 6 were treated with 100 μM NMDA (Sigma) for 2 hours to induce cerebral cell damage, with or without the presence of a fixed amount of a test sample. After 24 hours, the amount of LDH released into the culture solution was measured using an LDH measuring kit (Boehringer Mannheim).

[8] = tested on: cultured rat cerebral hippocampus cells and cortex cells; assay: Inhibition of growth factor withdrawal-induced neurotoxicity (LDH release); type: cell-based, SD rat
Method: The hippocampus and cortex were extracted from the cerebral tissue of 17-day old fetus of a pregnant SD rat using a microscope. The extracted hippocampus and cortex were each separated into discrete single cells using a pipette, and the cells obtained therefrom by centrifuging were inoculated into a 96-well plate coated with poly-L-lysine. […] After 72 hours incubation, the medium was replaced with the same medium but lacking glutamate, and the cells were further incubated. […] The cultured cells prepared in Reference Example 6 were cultured in […] containing 2% B27 supplementary nutrient, and then, the culture solution was replaced with the same […] but lacking B27 supplementary nutrient to induce cell death caused by undernutrition. After 24 hours, the amount of LDH released by cell necrosis was measured using an LDH measuring kit (Boehringer Mannheim) to quantify the extent of cell death.

[9] = isolated compounds, rat cerebrocortical neurons, LDH
[10] = 30 min after occlusion of middle cerebral artery
[11] = 24 hour after occlusion of middle cerebral artery, 10 mg/kg intraperitoneally

SMILES	Superoxide anion radical scavenging activity (IC50) [1] [µg/mL]	DPPH radical scavenging activity (IC50) [2] [µg/mL]	IC50 [3] [µg/mL]	IC50 [4, 9] [µg/mL]	Neurological score [5, 10]	Neurological score [5, 11]	Superoxide anion radical scavenging activity (in words) [1]	Corrected total infarction volume [6]	Infarction volume, cerebral cortex [6]	Infarction volume, corpus striatum [6] [mm^3]	Infarction volume, total [6]	Swelling ratio [6] [%]	DPPH radical scavenging activity (in words) [2]	Inhibition of xanthine/xanthine oxidase-induced neurotoxicity (in words) [3]	Inhibition of hydrogen peroxide-induced neurotoxicity (in words) [4]	Inhibition of NMDA-induced neurotoxicity (in words) [7]	inhibition at 9 µg/mL [7] [%]	inhibition at 30 µg/mL [7] [%]	further results
O=C1c2c(O)cc(O)cc2O[C@H](c2ccc(O)cc2)[C@H]1O [Dihydrokaempferol, dihydrokaempferol]	>50	>50	> 300	> 300															
O=C1c2c(O)cc(O)cc2O[C@H](c2ccc(O)c(O)c2)[C@H]1O [Dihydroquercetin, dihydroquercetin]	2.48	4.49	16.6 (≈ 54.6 µM)	7.8 (≈ 25.6 µM)	2.33 ± 0.16	3.00 ± 0.33	potent	130.7 ± 13.1 mm^3	169.4 ± 12.7 mm^3	30.1 ± 4.3	199.5 ± 16.5 mm^3	11.9 ± 0.5	potent	strongly inhibit	strongly inhibit	inhibit	33	47	
COc1c(-c2ccc(O)cc2)oc2cc(O)cc(O)c2c1=O [Kaempferol 3-methyl ether, kaempferol 3-methyl ether]	>50	>50																	Inhibition of hydrogen peroxide-induced neurotoxicity (IC50) [4, 9]: >300 µg/mL
O=c1c(O)c(-c2ccc(O)cc2)oc2cc(O)cc(O)c12 [Kaempferol, kaempferol]	>50	>50	24.9 (≈ 87 µM)	29.7 (≈ 104 µM)										strongly inhibit	strongly inhibit				

Continued, in another order:

Superoxide anion radical scavenging activity (IC50) [1] [µg/mL]	DPPH radical scavenging activity (IC50) [2] [µg/mL]	SMILES	IC50 [3] [µg/mL]	IC50 [4, 9] [µg/mL]	Neurological score [5, 10]	Neurological score [5, 11]	Superoxide anion radical scavenging activity (in words) [1]	Corrected total infarction volume [6]	Infarction volume, cerebral cortex [6]	Infarction volume, corpus striatum [6] [mm^3]	Infarction volume, total [6]	Swelling ratio [6] [%]	DPPH radical scavenging activity (in words) [2]	Inhibition of xanthine/xanthine oxidase-induced neurotoxicity (in words) [3]	Inhibition of hydrogen peroxide-induced neurotoxicity (in words) [4]	Inhibition of NMDA-induced neurotoxicity (in words) [7]	inhibition at 9 µg/mL [7] [%]	inhibition at 30 µg/mL [7] [%]	further results
4.77	3.76	COc1c(-c2ccc(O)c(O)c2)oc2cc(O)cc(O)c2c1=O [Quercetin 3-methyl ether, quercetin 3-methyl ether]	0.65 (≈ 2.06 µM)	0.6 (≈ 1.9 µM)	2.36 ± 0.15	4.81 ± 0.44	potent	81.6 ± 17.8* mm^3	81.2 ± 20.8* mm^3	28.9 ± 3.1	110.1 ± 22.9* mm^3	5.8 ± 0.7	potent	strongly inhibit; also recorded: highest inhibitory activity	strongly inhibit; also recorded: highest inhibitory activity	inhibit	21	54	Neurological score compared with the control (in words) [5]: significantly higher; Inhibition of growth factor withdrawal-induced neurotoxicity (in words) [8]: inhibited; inhibition at 9 µg/mL ([8]; Rattus norvegicus, 9 μg/Ml): 31%; inhibition at 30 µg/mL ([8]; Rattus norvegicus, 30 μg/Ml): 86%
>50	2.89	O=c1c(O)c(-c2ccc(O)c(O)c2)oc2cc(O)cc(O)c12 [Quercetin, quercetin]	5.5 (≈ 18.2 µM)	4.1 (≈ 13.6 µM)	2.44 ± 0.24	4.56 ± 0.53		110.6 ± 15.8 mm^3	130.5 ± 18.6 mm^3	30.1 ± 4.9	161.1 ± 21.4 mm^3	9.1 ± 1.1	potent	strongly inhibit	strongly inhibit				
